These results are taken from ChEMBL document CHEMBL1201862, “PubChem BioAssay data set” (2004).

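Assay format: 96-well plates, 48-hour exposure. GI50: concentration for 50% inhibition of growth.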 The source made the active and inactive calls. No stated cut-off is given here; in the data, active = GI50 up to about 1.1 µM and inactive = higher. Where only a bound is given, the exact number is not on record here.

Among the test systems are 786-0; A549; DU-145; EKVX; HCC 2998; HOP-92; HT-29; K562; LOX IMVI; MDA-MB-435; MDA-N; NCI-H23; NCI-H460; NCI/ADR-RES; OVCAR-5; OVCAR-8; SF-268; SW-620; UO-31; HCT-116.
What all share (assay): inhibition of tumour cell growth, NCI panel, 48 h

Consider `CC#Cc1cc2c(cc1O)CC[C@@H]1[C@@H]2CC[C@]2(C)[C@@H](O)CC[C@@H]12`, for which the GI50 in the assay on 786-0 was 1.58 µM (inactive); in the assay on A549, 2.01 µM (inactive); with DU-145, 3.43 µM (inactive); in the assay on EKVX it was 2.49 µM (inactive); in the assay with HCC 2998, 5.89 µM (inactive); in the assay on HOP-92, 11.8 µM (inactive). In addition, the GI50 in the assay with HT-29 was 13.8 µM (inactive); in the assay on K562, 0.344 µM (active); in the assay with LOX IMVI, 0.94 µM (active); in the assay on MDA-MB-435 it was 0.134 µM (active); with MDA-N, 0.178 µM (active); in the assay with NCI-H23, 1.54 µM (inactive). Further, the GI50 was 0.475 µM (active) in the assay with NCI-H460; 0.885 µM (active) with NCI/ADR-RES; 17.9 µM (inactive) in the assay with OVCAR-5; 2.09 µM (inactive) in the assay on OVCAR-8; 3.59 µM (inactive) in the assay on SF-268; 0.655 µM (active) with SW-620. In addition, in the assay with UO-31, the GI50 is 9.23 µM (inactive).
As to `O=C1/C(=C\c2ccc([N+](=O)[O-])cc2)Sc2scc(-c3ccc(O)c(O)c3)[n+]21`, the GI50 with 786-0 was 3.73 µM (inactive); with A549 it was 17.6 µM (inactive); in the assay on DU-145, 13.5 µM (inactive); in the assay on EKVX it was 14.2 µM (inactive); in the assay on HCC 2998, 4.97 µM (inactive); with HCT-116, 4.2 µM (inactive). Further, the GI50 in the assay with HOP-92 is 6.4 µM (inactive); in the assay with HT-29, 3.31 µM (inactive); with K562, 3.4 µM (inactive); in the assay with LOX IMVI, 5.61 µM (inactive); in the assay on MDA-MB-435, 9.75 µM (inactive); with MDA-N, 5.41 µM (inactive). For the same compound, the GI50 is 14.9 µM (inactive) in the assay on NCI-H23; 4.06 µM (inactive) with NCI-H460; 4.84 µM (inactive) with NCI/ADR-RES; 15.3 µM (inactive) with OVCAR-5; 4.45 µM (inactive) in the assay with OVCAR-8; 4.94 µM (inactive) in the assay on SF-268. Moreover, the GI50 in the assay with SW-620 is 3.4 µM (inactive); in the assay with UO-31 it was 4.72 µM (inactive).
Turning to `CCOC(=O)Cc1nnc2n(-c3ccccc3)c(=O)c3ccccc3n12`, the GI50 was > 100 µM (inactive) in the assay on 786-0; > 100 µM (inactive) with A549; > 100 µM (inactive) in the assay with DU-145; > 100 µM (inactive) in the assay with EKVX; > 100 µM (inactive) in the assay on HCC 2998; 90.8 µM (inactive) in the assay on HCT-116. The GI50 in the assay with HOP-92 is 17.1 µM (inactive); in the assay on HT-29 it was > 100 µM (inactive); in the assay with K562 it was > 100 µM (inactive); with LOX IMVI it was > 100 µM (inactive); in the assay on MDA-MB-435, > 100 µM (inactive); with MDA-N it was > 100 µM (inactive). The GI50 in the assay on NCI-H23 was > 100 µM (inactive); in the assay with NCI-H460, > 100 µM (inactive); with NCI/ADR-RES it was > 100 µM (inactive); with OVCAR-5 it was > 100 µM (inactive); in the assay on OVCAR-8, > 100 µM (inactive); with SF-268 it was 61.7 µM (inactive). The GI50 in the assay with SW-620 and in the assay on UO-31 was > 100 µM (inactive) each time.
With `CCn1nc2c3c(ncn3C(C)(C)O2)c1=O`, the GI50 with 786-0, in the assay on A549, with DU-145, in the assay on EKVX, with HCC 2998 and in the assay on HCT-116 was > 100 µM (inactive) throughout. Further, the GI50 in the assay with HOP-92, in the assay with HT-29, in the assay with K562, in the assay on LOX IMVI, in the assay on MDA-MB-435 and with MDA-N was > 100 µM (inactive) each time. In addition, the GI50 in the assay on NCI-H23, with NCI-H460, in the assay on NCI/ADR-RES, with OVCAR-5, with SF-268 and with SW-620 was > 100 µM (inactive) throughout. Further, in the assay on UO-31, the GI50 is > 100 µM (inactive).
With `C[C@@H]1CCC2[C@@H](C)[C@H](O[C@H]3O[C@@H]4O[C@@]5(C)CCC6[C@H](C)CCC([C@H]3C)[C@]64OO5)O[C@@H]3O[C@@]4(C)CCC1[C@@]23OO4` (stereo partly drawn), the GI50 with 786-0 is 0.361 µM (active); with A549, 0.0914 µM (active); with DU-145 it was 1.93 µM (inactive); in the assay with EKVX, 0.142 µM (active); in the assay on HCC 2998 it was 0.813 µM (active); with HCT-116, 0.0177 µM (active). The GI50 with HOP-92 was 0.114 µM (active); in the assay with HT-29, 0.0491 µM (active); in the assay with K562, 0.0202 µM (active); in the assay on LOX IMVI, 0.0258 µM (active); in the assay on MDA-MB-435, 0.06 µM (active); with MDA-N, 0.136 µM (active). In addition, the GI50 in the assay on NCI-H23 was 0.0415 µM (active); with NCI-H460 it was 0.0675 µM (active); in the assay on NCI/ADR-RES, 0.192 µM (active); with OVCAR-5, 0.352 µM (active); in the assay with OVCAR-8 it was 0.0929 µM (active); in the assay on SF-268 it was 3.44 µM (inactive). In addition, the GI50 in the assay with SW-620 was 0.0418 µM (active); in the assay on UO-31, 0.0559 µM (active).
For `O=c1[nH]nc(Cc2ccc(Cl)cc2)n1/N=C/c1c[nH]c2ccccc12`, the GI50 with 786-0, with A549, in the assay on DU-145, with EKVX, with HCC 2998 and with HCT-116 was > 100 µM (inactive) each time. The GI50 with HOP-92, in the assay on HT-29, with K562, in the assay on LOX IMVI, in the assay with MDA-MB-435 and with MDA-N was > 100 µM (inactive) throughout. The GI50 is > 100 µM (inactive) with NCI-H23; > 100 µM (inactive) in the assay on NCI-H460; 82.8 µM (inactive) with NCI/ADR-RES; > 100 µM (inactive) with OVCAR-5; > 100 µM (inactive) with OVCAR-8; > 100 µM (inactive) in the assay on SF-268. Also, the GI50 in the assay with SW-620 and with UO-31 was > 100 µM (inactive) each time.
Take `COc1ccc(NCC(=O)Nn2c(C)nc3ccc(S(=O)(=O)Nc4ccc(OC)cc4)cc3c2=O)cc1`: the GI50 in the assay on 786-0, in the assay with A549, in the assay on DU-145, with EKVX, with HCC 2998 and in the assay on HCT-116 was > 100 µM (inactive) each time. Besides, the GI50 in the assay with HOP-92, in the assay on HT-29, in the assay on K562, with LOX IMVI, in the assay with MDA-MB-435 and in the assay on MDA-N was > 100 µM (inactive) throughout. Besides, the GI50 in the assay on NCI-H23, in the assay on NCI-H460, in the assay on NCI/ADR-RES, in the assay on OVCAR-5, with OVCAR-8 and with SF-268 was > 100 µM (inactive) each time. Besides, the GI50 in the assay on SW-620 and in the assay with UO-31 was > 100 µM (inactive) in each case.
With `C=C1CCC2CC1[C@@H](C(=O)c1c[nH]c3ccccc13)NC2(C)C` (stereo partly drawn), the GI50 with 786-0 is > 37.5 µM (inactive); in the assay with A549 it was > 37.5 µM (inactive); in the assay with DU-145, > 37.5 µM (inactive); in the assay on EKVX, > 37.5 µM (inactive); in the assay on HCC 2998 it was 10.7 µM (inactive); in the assay with HCT-116, > 37.5 µM (inactive). The GI50 in the assay on HOP-92 is 13.2 µM (inactive); in the assay with HT-29 it was 29.7 µM (inactive); in the assay with K562, 21.9 µM (inactive); in the assay on LOX IMVI it was > 37.5 µM (inactive); in the assay on MDA-MB-435, > 37.5 µM (inactive); with MDA-N, > 37.5 µM (inactive). Besides, the GI50 in the assay with NCI-H23, with NCI-H460, in the assay with NCI/ADR-RES, with OVCAR-5, in the assay on OVCAR-8 and in the assay on SF-268 was > 37.5 µM (inactive) in each case. Further, the GI50 in the assay on SW-620 is > 37.5 µM (inactive); with UO-31, 29.5 µM (inactive).
As for `C=Cc1nc(C#N)c(N)o1`, the GI50 in the assay on 786-0, in the assay with A549, with DU-145, in the assay on EKVX, in the assay on HCC 2998 and in the assay on HCT-116 was > 100 µM (inactive) each time. The GI50 in the assay on HOP-92, in the assay with HT-29, with K562, with LOX IMVI, with MDA-MB-435 and in the assay with MDA-N was > 100 µM (inactive) throughout. For the same compound, the GI50 with NCI-H23, in the assay on NCI-H460, in the assay with NCI/ADR-RES, with OVCAR-5, in the assay with OVCAR-8 and with SF-268 was > 100 µM (inactive) throughout. Besides, the GI50 in the assay with SW-620 and in the assay with UO-31 was > 100 µM (inactive) in each case.
`O/N=N/c1cnccn1`: the GI50 was > 1250 µM (inactive) in the assay on 786-0; > 1250 µM (inactive) in the assay with A549; 1090 µM (inactive) in the assay on DU-145; > 1250 µM (inactive) in the assay with EKVX; > 1250 µM (inactive) with HCC 2998; > 1230 µM (inactive) with HCT-116. The GI50 was > 1080 µM (inactive) in the assay with HOP-92; > 1250 µM (inactive) in the assay with HT-29; > 1190 µM (inactive) in the assay on K562; 1190 µM (inactive) in the assay with LOX IMVI; > 1250 µM (inactive) in the assay with MDA-MB-435; > 1250 µM (inactive) with MDA-N. For the same compound, the GI50 with NCI-H23 is 859 µM (inactive); in the assay on NCI-H460, 724 µM (inactive); in the assay on NCI/ADR-RES it was > 1250 µM (inactive); in the assay on OVCAR-5, > 1250 µM (inactive); in the assay with OVCAR-8, 1200 µM (inactive); in the assay on SF-268 it was > 1250 µM (inactive). The GI50 in the assay on SW-620 and with UO-31 was > 1250 µM (inactive) in each case.
